Laboratory results reported in US9993490B2, “Phosphonic acid compounds and screening method” (The Board of Trustees of The University of Illinois, priority 2014, dated 2018).

What was measured:
[1] = test system: Mycobacterium smegmatis NRRL B-14616; experiment: Growth inhibition in liquid culture; assay type: cell-based; settings: 100 ug ml^-1, R2A, 37° C., 24 hours
Experimental: (§1) Antibiotic activity for purified PnPs was examined by growth inhibition in liquid cultures. Salmonella typhimurium LT2, Escherichia coli WM6242 (±1 mM IPTG), and Pseudomonas aeruginosa K were grown in M9-glucose. Bacillus subtilis subsp. spizizenii ATCC 6633, Staphylococcus aureus ATCC 25923, and Mycobacterium smegmatis NRRL B-14616 (37° C.) were cultivated in R2A. 96-Well plates containing 150 μL of media was inoculated with 1.5 uL of the appropriate cultures (OD600=0.4-0.5). Kanamycin, aminomethylphosphonate, 1-hydroxy-2-aminoethylphosphonate, (R)-2,3-dihydroxypropylphosphonate, argolaphos A, and argolaphos B were added to a final concentration of 100 ug ml^−1. After growth for 16 hours (24 for M. smegmatis) in a shaking incubator (200 rpm), cell densities recorded on a Tecan microplate reader.

[2] = test system: Escherichia coli WM6242; experiment: Growth inhibition in liquid culture; assay type: cell-based; settings: upon induction of phosphonate uptake machinery (1 mM IPTG); 100 ug ml^-1
Experimental: as §1

[3] = Stability in the course of purification; assay type: physicochemical; settings: fraction 2 of S. durhamensis NRRL B-3309 extract
Experimental: The liquid was concentrated to dryness and dissolved in 200 mL of 0.1% aqueous acetic acid, which was then applied to a 100 mL Fe(III) IMAC gravity column. Before sample loading the column was equilibrated with 0.1% acetic acid. After sample loading, the column was washed successively with 5 volumes of 0.1% acetic acid and 0.1% acetic acid in 20% acetonitrile (ACN). The materials were eluted from the column with 100 mM aqueous NH4HCO3. The eluate (200 mL) from the iron IMAC column was dried with a rotary evaporator as fraction 1. The unabsorbed sample was also dried as fraction 2.

O=P(O)(O)C[C@H](O)CO [Compound 4, (R)-2,3-dihydroxypropylphosphonic acid]
growth inhibition of Mycobacterium smegmatis [1]: slightly inhibited growth

NCC(O)OP(=O)(O)O (stereo not drawn) [Compound 11, 1-hydroxy-2-aminoethylphosphoric acid]
antibiotic activity against E. coli [2]: effective antibiotic

cyclic 2,3-dihydroxypropanoic acid [Compound 6]
stability during purification [3]: unstable and easily decomposed
